Assay results from PubChem BioAssay AID2060325 (Molecular Pharmacology Branch, DTP, NCI, 2025).

Tested on: SK-OV-3 multi-cell spheroids, viability
Assay: Anticancer human tumor SK-OV-3 cell line growth inhibition [IpAb];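 as to viability, T/C: viability read after seven days of drug exposure; percent of DMSO vehicle control luminescence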
Conditions: for IC50: curve of first compound; for viability, T/C: stronger effect = lower value
In short: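 Spheroids of 60% malignant cells, 25% HUVEC and 15% MSC were exposed to targeted agents combined with ipatasertib or abemaciclib. Doses started at or near clinical Cmax (10 microM when unknown) and fell in half-log steps.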

[1] = second compound 0.1 µM, first compound 0.0316 µM
[2] = second compound 0.1 µM, first compound 0.1 µM
[3] = second compound 0.1 µM, first compound 0.316 µM
[4] = second compound 0.1 µM, first compound 1 µM
[5] = second compound 0.1 µM, first compound 3.16 µM
[6] = second compound 0.1 µM, first compound 10 µM
[7] = second compound 0.316 µM, first compound 0.0316 µM
[8] = second compound 0.316 µM, first compound 0.1 µM
[9] = second compound 0.316 µM, first compound 0.316 µM
[10] = second compound 0.316 µM, first compound 1 µM
[11] = second compound 0.316 µM, first compound 3.16 µM
[12] = second compound 0.316 µM, first compound 10 µM
[13] = second compound 1 µM, first compound 0.0316 µM
[14] = second compound 1 µM, first compound 0.1 µM
[15] = second compound 1 µM, first compound 0.316 µM
[16] = second compound 1 µM, first compound 1 µM
[17] = second compound 1 µM, first compound 3.16 µM
[18] = second compound 1 µM, first compound 10 µM
[19] = second compound 3.16 µM, first compound 0.0316 µM
[20] = second compound 3.16 µM, first compound 0.1 µM
[21] = second compound 3.16 µM, first compound 0.316 µM
[22] = second compound 3.16 µM, first compound 1 µM
[23] = second compound 3.16 µM, first compound 3.16 µM
[24] = second compound 3.16 µM, first compound 10 µM
[25] = second compound 10 µM, first compound 0.0316 µM
[26] = second compound 10 µM, first compound 0.1 µM
[27] = second compound 10 µM, first compound 0.316 µM
[28] = second compound 10 µM, first compound 1 µM
[29] = second compound 10 µM, first compound 3.16 µM
[30] = second compound 10 µM, first compound 10 µM

Compound	IC50 (second compound 0.1 µM)	IC50 (second compound 0.316 µM)	IC50 (second compound 1 µM)	IC50 (second compound 3.16 µM)	IC50 (second compound 10 µM)	viability, T/C [1]	viability, T/C [2]	viability, T/C [3]	viability, T/C [4]	viability, T/C [5]	viability, T/C [6]	viability, T/C [7]	viability, T/C [8]	viability, T/C [9]	viability, T/C [13]	viability, T/C [14]	viability, T/C [19]	viability, T/C [20]	viability, T/C [25]	viability, T/C [26]	other results
C=CC(=O)N1CCN(c2nc(=O)n(-c3c(C)ccnc3C(C)C)c3nc(-c4c(O)cccc4F)c(F)cc23)C(C)C1 (stereo not given) + CC(C)NCC(C(=O)N1CCN(c2ncnc3c2C(C)CC3O)CC1)c1ccc(Cl)cc1	7190 nM	< 31.6 nM	< 31.6 nM	< 31.6 nM	< 31.6 nM	75.9%	80.2%	77.7%	76.3%	72.7%	41%	35.8%	39.4%	39.6%	21.1%	19.1%	14.8%	17.1%	9.96%	10.9%	viability, T/C [10]: 38.7%; viability, T/C [11]: 39.5%; viability, T/C [12]: 26.2%; viability, T/C [15]: 21.4%; viability, T/C [16]: 23.8%; viability, T/C [17]: 24.6%; viability, T/C [18]: 16.9%; viability, T/C [21]: 16.4%; viability, T/C [22]: 18.2%; viability, T/C [23]: 17%; viability, T/C [24]: 11.2%; viability, T/C [27]: 10.4%; viability, T/C [28]: 10.8%; viability, T/C [29]: 10.9%; viability, T/C [30]: 6.35%
Cn1ncc(Cl)c1-c1cc(C(=O)NC(CN)Cc2cccc(F)c2)sc1Cl (stereo not given) + CC(C)NCC(C(=O)N1CCN(c2ncnc3c2C(C)CC3O)CC1)c1ccc(Cl)cc1	58.8 nM	< 31.6 nM	< 31.6 nM	< 31.6 nM	< 31.6 nM	62.6%	38.1%	25%	16.4%	8.41%	0.21%	36.4%	28.2%	19.7%	20.7%	18.3%	15.7%	15.9%	10.6%	11.4%	viability, T/C [10]: 13.8%; viability, T/C [11]: 8.71%; viability, T/C [12]: 0.38%; viability, T/C [15]: 17.6%; viability, T/C [16]: 13.6%; viability, T/C [17]: 8.68%; viability, T/C [18]: 0.2%; viability, T/C [21]: 15.9%; viability, T/C [22]: 12.9%; viability, T/C [23]: 6.61%; viability, T/C [24]: 0.36%; viability, T/C [27]: 9.32%; viability, T/C [28]: 6.87%; viability, T/C [29]: 4.93%; viability, T/C [30]: 0.28%
Cn1ncnc1[C@H]1c2n[nH]c(=O)c3cc(F)cc(c23)N[C@@H]1c1ccc(F)cc1 + CC(C)NCC(C(=O)N1CCN(c2ncnc3c2C(C)CC3O)CC1)c1ccc(Cl)cc1	> 100 nM	< 0.316 nM	< 0.316 nM	< 0.316 nM	< 0.316 nM	65.4%	58.8%					38.3%	33.2%		20.9%	19%	12.8%	16.1%	8.59%	9.45%	viability, T/C (second compound 0.1 µM, first compound 0.000316 µM): 74.2%; viability, T/C (second compound 0.1 µM, first compound 0.001 µM): 78.8%; viability, T/C (second compound 0.1 µM, first compound 0.00316 µM): 60.9%; viability, T/C (second compound 0.1 µM, first compound 0.01 µM): 69.4%; viability, T/C (second compound 0.316 µM, first compound 0.000316 µM): 34.5%; viability, T/C (second compound 0.316 µM, first compound 0.001 µM): 39.5%; viability, T/C (second compound 0.316 µM, first compound 0.00316 µM): 41.2%; viability, T/C (second compound 0.316 µM, first compound 0.01 µM): 38.4%; viability, T/C (second compound 1 µM, first compound 0.000316 µM): 22.9%; viability, T/C (second compound 1 µM, first compound 0.001 µM): 21.5%; viability, T/C (second compound 1 µM, first compound 0.00316 µM): 20.5%; viability, T/C (second compound 1 µM, first compound 0.01 µM): 20.4%; viability, T/C (second compound 3.16 µM, first compound 0.000316 µM): 19%; viability, T/C (second compound 3.16 µM, first compound 0.001 µM): 17.1%; viability, T/C (second compound 3.16 µM, first compound 0.00316 µM): 15.1%; viability, T/C (second compound 3.16 µM, first compound 0.01 µM): 15.4%; viability, T/C (second compound 10 µM, first compound 0.000316 µM): 10.3%; viability, T/C (second compound 10 µM, first compound 0.001 µM): 10.1%; viability, T/C (second compound 10 µM, first compound 0.00316 µM): 10.3%; viability, T/C (second compound 10 µM, first compound 0.01 µM): 9.69%
